# Test results as given in ChEMBL document CHEMBL5550184, “Structure-activity relationships of middle-size cyclic peptides, KRAS inhibitors derived from an mRNA display” (Bioorg Med Chem, 2024).
# Positions of bridges follow the written chain, without caps; N, C: chain ends. Non-standard residues stand in square brackets, D forms with d. Residues, ends and D or L forms follow the SMILES beside them. *: point of attachment. hPhe(3-Cl-4-CF3) = N[C@@H](CCc1ccc(C(F)(F)F)c(Cl)c1)C(=O)O; NMeCha = CN[C@@H](CC1CCCCC1)C(=O)O; NMeChg = CN[C@H](C(=O)O)C1CCCCC1; NMeT = CN[C@H](C(=O)O)[C@@H](C)O; NMeD = CN[C@@H](CC(=O)O)C(=O)O; NMeL = CN[C@@H](CC(C)C)C(=O)O; NMehSer = CN[C@@H](CCO)C(=O)O; NMeAc5c = CNC1(C(=O)O)CCCC1; NMeNva = CCC[C@H](NC)C(=O)O; Piperidide = C1CCN(*)CC1; Ac5c = NC1(C(=O)O)CCCC1; Sar = CNCC(=O)O
# Experiments:
# [1] = Apparent permeability in human Caco-2 cells incubated for 180 mins by LC-MS/MS method; format: ADME, cell-based
# GTPase KRas = GTPase KRas (Homo sapiens, UniProt P01116, G12D); test: Binding affinity to biotinylated KRAS G12D mutant (unknown origin) incubated for 120 mins by SPR analysis
# [2] = tested on: GTPase KRas (Homo sapiens), P01116 [G12D]; test: Binding affinity to biotinylated KRAS G12D mutant (unknown origin) assessed as Koff incubated for 120 mins by SPR analysis
# [3] = tested on: GTPase KRas (Homo sapiens), P01116 [G12D]; test: Binding affinity to biotinylated KRAS G12D mutant (unknown origin) assessed as Kon incubated for 120 mins by SPR analysis
# ASPC1 = test: Cytotoxicity against human AsPC1 cells assessed as reduction in cell viability incubated for 7 days by CellTiterGlo Luminescent Cell Viability Assay; format: functional, cell-based; details: ASPC1, 168 h
# [4] = Inhibition of biotin-tagged KRAS G12D mutant (unknown origin) to recombinant His-tagged SOS1 (unknown origin) protein-protein interaction incubated for 120 mins by AlphaLISA method; parameters: species or system Homo sapiens
# Chain of GTPase KRas (Homo sapiens), P01116 [G12D] (P01116 whole entry G12D, looked up): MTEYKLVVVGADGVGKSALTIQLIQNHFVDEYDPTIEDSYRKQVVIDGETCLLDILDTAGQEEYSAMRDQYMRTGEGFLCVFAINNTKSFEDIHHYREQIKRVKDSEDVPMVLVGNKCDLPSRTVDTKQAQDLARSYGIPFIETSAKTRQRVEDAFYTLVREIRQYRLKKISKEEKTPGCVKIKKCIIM
# Chain of GTPase KRas (P01116 whole entry G12D): as the sequence (P01116 whole entry G12D, looked up) above
Papp at 3 h [1] [×10⁻⁶ cm/s],Kd (GTPase KRas) [nM],K [2],K [3],IC50 [4] [nM],SMILES,IC50 (ASPC1) [nM]
0.62,0.64,2.4 10^-4/s,3.8 10^5/Ms,< 2,CC[C@H](C)[C@@H]1NC(=O)C2(CCCC2)N(C)C(=O)C[C@@H](C(=O)N2CCCCC2)N(C)C(=O)[C@H](C2CCCCC2)N(C)C(=O)C2(CCCC2)NC(=O)[C@@H]2CCCN2C(=O)[C@H](CCc2ccc(C(F)(F)F)c(Cl)c2)NC(=O)CN(C)C(=O)[C@H](CC2CCCCC2)N(C)C(=O)CN(C)C(=O)CN(C)C1=O ([NMeAc5c]I[Sar][Sar][NMeCha][Sar][hPhe(3-Cl-4-CF3)]P[Ac5c][NMeChg][NMeD]-Piperidide; lactam N-11),65
0.2,2.5,2.6 10^-4/s,1 10^5/Ms,< 2,CC[C@H](C)[C@@H]1NC(=O)[C@H](CC2CCCCC2)N(C)C(=O)C[C@@H](C(=O)N2CCCCC2)N(C)C(=O)[C@H](C2CCCCC2)N(C)C(=O)C2(CCCC2)NC(=O)[C@@H]2CCCN2C(=O)[C@H](CCc2ccc(C(F)(F)F)c(Cl)c2)NC(=O)CN(C)C(=O)[C@H](CC2CCCCC2)N(C)C(=O)CN(C)C(=O)CN(C)C1=O ([NMeCha]I[Sar][Sar][NMeCha][Sar][hPhe(3-Cl-4-CF3)]P[Ac5c][NMeChg][NMeD]-Piperidide; lactam N-11),210
0.71,0.32,2.5 10^-4/s,7.8 10^5/Ms,< 2,CC[C@H](C)[C@@H]1NC(=O)[C@H](CC(C)C)N(C)C(=O)C[C@@H](C(=O)N2CCCCC2)N(C)C(=O)[C@H](C2CCCCC2)N(C)C(=O)C2(CCCC2)NC(=O)[C@@H]2CCCN2C(=O)[C@H](CCc2ccc(C(F)(F)F)c(Cl)c2)NC(=O)CN(C)C(=O)[C@H](CC2CCCCC2)N(C)C(=O)CN(C)C(=O)CN(C)C1=O ([NMeL]I[Sar][Sar][NMeCha][Sar][hPhe(3-Cl-4-CF3)]P[Ac5c][NMeChg][NMeD]-Piperidide; lactam N-11),40
0.85,0.75,2.3 10^-4/s,3.1 10^5/Ms,< 2,CCC[C@H]1C(=O)N[C@@H]([C@@H](C)CC)C(=O)N(C)CC(=O)N(C)CC(=O)N(C)[C@@H](CC2CCCCC2)C(=O)N(C)CC(=O)N[C@@H](CCc2ccc(C(F)(F)F)c(Cl)c2)C(=O)N2CCC[C@H]2C(=O)NC2(CCCC2)C(=O)N(C)[C@@H](C2CCCCC2)C(=O)N(C)[C@H](C(=O)N2CCCCC2)CC(=O)N1C ([NMeNva]I[Sar][Sar][NMeCha][Sar][hPhe(3-Cl-4-CF3)]P[Ac5c][NMeChg][NMeD]-Piperidide; lactam N-11),49
0.15,0.23,2.7 10^-4/s,1.2 10^6/Ms,< 2,CC[C@H](C)[C@@H]1NC(=O)[C@H]([C@@H](C)O)N(C)C(=O)C[C@@H](C(=O)N2CCCCC2)N(C)C(=O)[C@H](C2CCCCC2)N(C)C(=O)C2(CCCC2)NC(=O)[C@@H]2CCCN2C(=O)[C@H](CCc2ccc(C(F)(F)F)c(Cl)c2)NC(=O)CN(C)C(=O)[C@H](CC2CCCCC2)N(C)C(=O)CN(C)C(=O)CN(C)C1=O ([NMeT]I[Sar][Sar][NMeCha][Sar][hPhe(3-Cl-4-CF3)]P[Ac5c][NMeChg][NMeD]-Piperidide; lactam N-11),220
0.37,0.26,2.8 10^-4/s,1.1 10^6/Ms,< 2,CC[C@H](C)[C@@H]1NC(=O)[C@H](CCOC)N(C)C(=O)C[C@@H](C(=O)N2CCCCC2)N(C)C(=O)[C@H](C2CCCCC2)N(C)C(=O)C2(CCCC2)NC(=O)[C@@H]2CCCN2C(=O)[C@H](CCc2ccc(C(F)(F)F)c(Cl)c2)NC(=O)CN(C)C(=O)[C@H](CC2CCCCC2)N(C)C(=O)CN(C)C(=O)CN(C)C1=O ([NMehSer](Me)I[Sar][Sar][NMeCha][Sar][hPhe(3-Cl-4-CF3)]P[Ac5c][NMeChg][NMeD]-Piperidide; lactam N-11),74
0.39,0.17,2.2 10^-4/s,1.2 10^6/Ms,< 2,CC[C@H](C)[C@@H]1NC(=O)[C@H](CCO)N(C)C(=O)C[C@@H](C(=O)N2CCCCC2)N(C)C(=O)[C@H](C2CCCCC2)N(C)C(=O)C2(CCCC2)NC(=O)[C@@H]2CCCN2C(=O)[C@H](CCc2ccc(C(F)(F)F)c(Cl)c2)NC(=O)CN(C)C(=O)[C@H](CC2CCCCC2)N(C)C(=O)CN(C)C(=O)CN(C)C1=O ([NMehSer]I[Sar][Sar][NMeCha][Sar][hPhe(3-Cl-4-CF3)]P[Ac5c][NMeChg][NMeD]-Piperidide; lactam N-11),63
